Counter-ions that a name gives are not always drawn.
Columns and labels:
[1] = Moisture content of the solid; format: physicochemical
Method: Thermo gravimetric analysis (TGA) used for estimation of solvent/water content of dried material is performed using a TA-instruments TGA-Q500 about 10 mg sample is heated 10°/min in an open pan under nitrogen flow.
Vortioxetine Adipate (30.0 g) and dichloromethane (450 ml) were charged in round bottom flask stirred it for 5 mins. Solution of NaOH (8.1 g in 300 ml water) and solution of NaCl (7.5 g in 75 ml water) were added into above resulting solution and stirred it till clear solution was observed. Organic layer was separated out. HBr in acetic acid (18 g) was added into organic layer and stirred it for 30 mins. Acetic acid (150 ml) was added into reaction mixture. Dichloromethane was distilled out atmospherically from reaction mixture. Acetic acid (200 ml) and water (50 ml) were added into the reaction mixture. Water (1250 ml) was taken into another round bottom flask at 30±5° C. and cooled to 7±3° C. Reaction mixture was added into water containing round bottom flask within 15-30 minutes at 7±3° C. and after addition, reaction mixture's temperature allowed to come to 20±2° C. Reaction mixture was stirred for 30 minutes at 20±2° C. Reaction mixture was filtered and washed it with water (50 ml). Solid was dried to get Vortioxetine Hydrobromide (Form Ad) under vacuum for 6-8 hrs at 45±3° C. (Moisture content of solid is less than 1.0% w/w) […]

[2] = Polymorphic stability on exposure to moisture; format: physicochemical
Method: Vortioxetine Adipate (30.0 g) and dichloromethane (450 ml) were charged in round bottom flask stirred it for 5 mins. Solution of NaOH (8.1 g in 300 ml water) and solution of NaCl (7.5 g in 75 ml water) were added into above resulting solution and stirred it till clear solution was observed. Organic layer was separated out. HBr in acetic acid (18 g) was added into organic layer and stirred it for 30 mins. Acetic acid (150 ml) was added into reaction mixture. Dichloromethane was distilled out atmospherically from reaction mixture. Acetic acid (200 ml) and water (50 ml) were added into the reaction mixture. Water (1250 ml) was taken into another round bottom flask at 30±5° C. and cooled to 7±3° C. Reaction mixture was added into water containing round bottom flask within 15-30 minutes at 7±3° C. and after addition, reaction mixture's temperature allowed to come to 20±2° C. Reaction mixture was stirred for 30 minutes at 20±2° C. Reaction mixture was filtered and washed it with water (50 ml). Solid was dried to get Vortioxetine Hydrobromide (Form Ad) under vacuum for 6-8 hrs at 45±3° C. (Moisture content of Vortioxetine Hydrobromide (Form Ad) is less than 1.0% w/w). Vortioxetine Hydrobromide (Form Ad) was exposed at 40% RH and 25° C. for 2 hours to get Vortioxetine Hydrobromide (Form A). (Moisture content of Vortioxetine Hydrobromide (Form A) is between 4.2-4.8% w/w)

| Moisture content ([1]; after Form Ad was exposed at 40% RH and 25° C. for 2 hours) | Form change when exposed to moisture [2] | Moisture content ([1]; solid dried under vacuum for 6-8 hrs at 45±3° C.) | Compound |
| --- | --- | --- | --- |
| 4.2-4.8 % w/w |  |  | Cc1ccc(Sc2ccccc2N2CCNCC2)c(C)c1 [Vortioxetine Hydrobromide (Form A), Vortioxetine Hydrobromide] |
|  | converts into form A | less than 1.0 % w/w | Cc1ccc(Sc2ccccc2N2CCNCC2)c(C)c1 [Vortioxetine Hydrobromide (Form Ad), Vortioxetine Hydrobromide] |

Source: patent US10071092B2, “Polymorphic forms of vortioxetine and its pharmaceutically acceptable salts” (ALEMBIC PHARMACEUTICALS LIMITED, priority 2014, dated 2018)
